ChEMBL document CHEMBL3272313, “3-Hydroxy-17-aralkylmorphinans as potential opiate receptor-site-directed alkylating agents” (J Med Chem, 1977)
The source made the active and inactive calls. The rule behind the calls is not given here.

Tests used:
Mus musculus [1] = assay: Analgesic activity in sc dosed Swiss-Webster mouse after 6.5 hrs; format: functional, organism-based
Mus musculus [2] = assay: Analgesic activity in sc dosed Swiss-Webster mouse after 30 mins; format: functional; conditions: 0.5 h
Mus musculus [3] = assay: Analgesic activity in Swiss-Webster mouse assessed as time required for sustainance of activity at 70 mg/kg, sc; format: functional; conditions: route subcutaneous
Mus musculus [4] = assay: Analgesic activity in sc dosed Swiss-Webster mouse time of peak effect; format: functional

Q: Which results are given for `O=C(CBr)Nc1ccccc1CCN1CC[C@]23CCCC[C@H]2[C@H]1Cc1ccc(O)cc13`?
A: Activity (Mus musculus [1]): Active; ED50 (Mus musculus [2]): 16 mg/kg; Time (Mus musculus [3]): 6.5 h; Time (Mus musculus [4]): 30 min
